The text below walks through data of patent US20240238333A1 (Penland Foundation, priority 2023, published 2024).

For series [1] the following is noted: at effective dosages; cited from earlier work.
Series [2] has as its system substance P and glutamate. Kind of series: Clinical observation of suppression of substance P and glutamate by nitrous oxide. It counts as in vivo. An excerpt: The length of treatment to suppress the severe cytokine reaction will vary and be influenced by the time to medically correct the initiating factor. […] For children, adjustments will have to be made for age and body weight. […] Other inhalants can be included in the above-compositions such as for other purposes.

`[N-]=[N+]=O` [nitrous oxide]: the “respiratory depression, over sedation, or irritation of the lungs” value in series [1] is “does not cause respiratory depression, over sedation, or irritation of the lungs”. In addition, the “Duration of substance P suppression, average cases” value in series [2] (average cases) was 4 to 8 h. In addition, the “duration of suppression of substance P and glutamate” value in series [2] (conscious sedation levels, about 50% nitrous oxide/about 50% oxygen) lay in the range of 6 to 8 h.
